Experimental data from patent EP4635959A1, “NOVEL CRYSTALLINE FORM OF MAGNESIUM-SERINATE AND METHOD FOR PRODUCING SAME” (Astrogen, Inc., priority 2022, dated 2024).

Tests used:
primary mouse astrocytes = experiment: Cytoprotective effect on oxidative stress induced by DMNQ (MTT cell viability); assay type: cell-based; settings: for cell viability: pre-treated 6 hours with 1 mM, 2 mM, 5 mM, then DMNQ (30 µM) with compound for 16 hours, MTT, Fig. 8
Description: A 1-day-old mouse brain was removed, the olfactory bulb was removed, and the meninges were peeled off. After collecting the resultant in a 50 mL tube including HBSS (Hank's balanced salt solution) and centrifuging at 250 × g for 1 minute, the supernatant was removed. 2 mL of trypsin/EDTA (0.5 %), 8 mL of HBSS buffer, and 0.2 mL of DNase were mixed and reacted in a 37 °C constant temperature water bath for 30 minutes. After adding 18 mL of the culture medium and 2 mL of trypsin/EDTA thereto and pipetting 10 times, the resultant was filtered using a 40 µm cell strainer. Then, the supernatant was removed after centrifugation at 800 × g for 2 minutes. After adding 5 mL of the culture solution thereto, the number of cells was confirmed using a hemocytometer and the cells were cultured to obtain primary mouse astrocytes.
After inoculating cells (primary astrocytes, 1 × 10^5 cells) per well in a 96-well plate and culturing at 5 % CO2 and 37 °C for 24 hours to obtain a cell monolayer, the composition was diluted with a cell inoculation medium and the diluted composition each at a concentration of 0 mM, 1 mM, 2 mM, and 5 mM was inoculated at 100 µL/well, and then cultured in a 5 % CO2 and 37 °C incubator for 6 hours. […] Then, after removing the culture medium, 0.5 mg/mL of MTT solution was added to each well in an amount of 100 µL and reacted in a 5 % CO2 and 37 °C incubator for 2 hours. After completely removing the MTT solution and drying the culture plate, the formazan crystals formed in the cells were dissolved with DMSO, and the absorbance was measured at 590 nm with an ELISA plate reader to evaluate cell viability and drug efficacy.

[1] = Stability test under harsh condition (qNMR, maleic acid standard); assay type: physicochemical
Description: In order to confirm the stability of the crystalline form of the present invention depending on conditions, a stability test was conducted under harsh conditions.
The magnesium-serinate crystalline form prepared in Example 2 was stored in a solid state at 70 °C and in an aqueous solution having a concentration of 0.5 mg/mL at 25 °C (60.0 % relative humidity) for 21 days, respectively, and then maleic acid was set as a standard substance, and the stability (measurement of content and related materials) was confirmed through qNMR analysis.
For the qNMR analysis method, analysis conditions were established by measuring the spin-lattice relaxation time T1 of the nuclide ^1H of magnesium-serinate on the sample obtained through the preliminary stress test. The T1 value was set at 4.708 seconds, and the measurement waiting time (d1: delay time) and measurement time (at: acquisition time) were set based on this value. The measurement waiting time (d1) was set to 30 seconds, and the measurement time (at) was set to being equal to or greater than the T1 value.
For the ^1H-NMR measurement for qNMR analysis, JEOL's JNM-ECX400I (400 MHz) NMR equipment was used, and spectral width (sw) was set at 6,000 Hz to sufficiently reflect the frequency range from 0 ppm to 10 ppm.

[2] = Evaluation of occurrence of polymorphic transition on storage (PXRD and DSC); assay type: physicochemical; settings: for DSC Endothermic Temperature: (dec.)
Description: In order to confirm whether the polymorphic transition of the magnesium-serinate crystalline form of the present invention occurs over time, PXRD and DSC analyses were performed in the initial state and after 4 weeks to confirm whether or not the polymorphic transition occurred.
Specifically, the crystalline form prepared in Example 2 was added into a polyethylene bag, placed in a stability chamber under conditions of a temperature of 40 °C and a relative humidity of 75 %, and stored for 4 weeks. PXRD and DSC analyses were performed in substantially the same manner as in Experimental Examples 2 and 3.

[3] = Moisture measurement (Karl Fischer method); assay type: physicochemical; settings: 0.5 g of sample
Description: (§1) Moisture and pH evaluations were performed in the same manner as in Experimental Example 7, and the heavy metal test and the content test were performed in the same manner as in Example 1.
(§2) The crystalline form of the present application prepared in Example 1 and the amorphous form of AST-011 (Comparative Example 2) were comparatively evaluated for the following test items by the following methods, and the results are shown in Table 7 below. - Appearance evaluation: Visual observation - Moisture measurement: According to the moisture measurement method (Karl Fischer method) of the general test method of the 12th edition of the Korean Pharmacopoeia, measured by adding 0.5 g of the sample into a moisture meter (Mettler Toledo, V10-S, Switzerland). - Infrared spectrum measurement method (IR): Measurement was made with FT-IR equipment (PerkinElmer, Spectrum 2, USA) according to the ATR measurement method of the general test method of the 12th revision of the Korean Pharmacopoeia. - pH measurement: 0.5 g of the sample was added into a 10 mL volumetric flask, and water was added to a final volume of 10 mL, and measurement was made with a pH meter (Mettler Toledo, FP-20 Switzerland). - XRD and DSC analyses: The analyses were performed in the same way as in Experimental Examples 2 and 3.

[4] = pH measurement of aqueous sample; assay type: physicochemical; settings: 0.5 g of sample in water, final volume 10 mL
Description: as §1, §2

[5] = Appearance evaluation on storage (visual observation); assay type: physicochemical; settings: storage for 3 months under the same conditions as AST-011
Source text: as §2, with “3. […]” for “3.”

[6] = 25°C, Aqueous solution state (0.5 mg/mL, 60.0 % relative humidity), initial state
[7] = 70°C, Solid state, initial state
[8] = initial vs after 4 weeks at 40 °C, relative humidity 75 %

Purity of magnesium-serinate (%) ([1]; 25°C, Aqueous solution state (0.5 mg/mL, 60.0 % relative humidity), 9 days)	Concentration of Total Related Materials (%) ([1]; 25°C, Aqueous solution state (0.5 mg/mL, 60.0 % relative humidity), 21 days)	Concentration of Total Related Materials (%) [1, 6] [%]	Purity of magnesium-serinate (%) [1, 6] [%]	Purity of magnesium-serinate (%) ([1]; 70°C, Solid state, 9 days)	Concentration of Total Related Materials (%) ([1]; 70°C, Solid state, 21 days)	Concentration of Total Related Materials (%) [1, 7] [%]	Purity of magnesium-serinate (%) [1, 7] [%]	DSC Endothermic Temperature ([2]; after 4 weeks at 40 °C and relative humidity of 75 %, polyethylene bag)	Result of Comparative Analysis [2, 8]	Result of PXRD Analysis [2, 8]	DSC Endothermic Temperature ([2]; initial)	Moisture Content [3] [%]	Moisture Content ([3]; listed as Example 2) [%]	pH [4]	SMILES	cell viability (primary mouse astrocytes)	Appearance (stability) [5]	cytotoxicity at 30 µM (primary mouse astrocytes; Mus musculus, Astrocyte, 16 h, read-out: cells killed by oxidative stress) [%]
–	–	–	–	–	–	–	–	–	–	–	–	–	–	–	N[C@@H](CO)C(=O)O [Comparative Example 1, L-serine]	excellent	–	–
100.07	0.00	0.00	100.12	100.15	0.00	0.00	100.12	282.5 °C (dec.)	no occurrence of polymorphic transition	same crystalline form	283.0 °C (dec.)	0.2	0.1	10.3	N[C@@H](CO)C(=O)[O-].N[C@@H](CO)C(=O)[O-].[Mg+2] [Crystalline Form of Present Application, magnesium-di-(2S)-2-amino-3-hydroxypropanoate]	excellent	Fig. 7(b) light gray or white powder (stability: no change after 3 months)	–
–	–	–	–	–	–	–	–	–	–	–	–	–	–	–	COC1=C(OC)C(=O)c2ccccc2C1=O [DMNQ, 1,4-naphthoquinone]	–	–	~50
